{
  "source": "ChEMBL document CHEMBL4680293",
  "about": "“Tubulin inhibitory activity of a novel colchicine-binding compounds based on a dinaphthospiropyranran scaffold” (Bioorg Med Chem, 2021)",
  "key": {"[1]": {"test_system": "SK-MEL-2", "assay": "Anti-cancer activity against human SK-MEL-2 cells assessed as cell growth inhibition measured after 48 hrs by SRB method", "type": "functional, cell-based"}, "[2]": {"assay": "Anti-cancer activity against human melanoma cells assessed as cell growth inhibition measured after 48 hrs by SRB method", "type": "functional", "conditions": "Melanoma cell line"}, "[3]": {"test_system": "NCI-H23", "assay": "Anti-cancer activity against human NCI-H23 cells assessed as cell growth inhibition measured after 48 hrs by SRB method", "type": "functional, cell-based"}, "[4]": {"test_system": "SNB-19", "assay": "Anti-cancer activity against human SNB-19 cells assessed as cell growth inhibition measured after 48 hrs by SRB method", "type": "functional, cell-based"}, "[5]": {"test_system": "DU-145", "assay": "Anti-cancer activity against human DU-145 cells assessed as cell growth inhibition measured after 48 hrs by SRB method", "type": "functional, cell-based"}, "[6]": {"test_system": "MCF7", "assay": "Anti-cancer activity against human MCF-7 cells assessed as cell growth inhibition measured after 48 hrs by SRB method", "type": "functional, cell-based"}, "[7]": {"test_system": "COLO 205", "assay": "Anti-cancer activity against human COLO205 cells assessed as cell growth inhibition measured after 48 hrs by SRB method", "type": "functional, cell-based"}, "[8]": {"test_system": "MDA-MB-468", "assay": "Anti-cancer activity against human MDA-MB-468 cells assessed as cell growth inhibition measured after 48 hrs by SRB method", "type": "functional, cell-based"}, "[9]": {"test_system": "Hs-578T", "assay": "Anti-cancer activity against human HS-578T cells assessed as cell growth inhibition measured after 48 hrs by SRB method", "type": "functional, cell-based"}, "[10]": {"assay": "Anti-cancer activity against human prostate cancer cells assessed as cell growth inhibition measured after 48 hrs by SRB method", "type": "functional", "conditions": "Prostate tumor cell line"}, "[11]": {"test_system": "SK-MEL-5", "assay": "Anti-cancer activity against human SK-MEL-5 cells assessed as cell growth inhibition measured after 48 hrs by SRB method", "type": "functional, cell-based"}, "[12]": {"test_system": "A549", "assay": "Anti-cancer activity against human A549/ATCC cells assessed as cell growth inhibition measured after 48 hrs by SRB method", "type": "functional, cell-based"}, "[13]": {"test_system": "KM12", "assay": "Anti-cancer activity against human KM12 cells assessed as cell growth inhibition measured after 48 hrs by SRB method", "type": "functional, cell-based"}, "[14]": {"test_system": "UACC-62", "assay": "Anti-cancer activity against human UACC-62 cells assessed as cell growth inhibition measured after 48 hrs by SRB method", "type": "functional, cell-based"}},
  "data": [
    {"smiles": "C1=C2CNCC3=Cc4c(ccc5ccccc45)OC23Oc2ccc3ccccc3c21", "values": [
      {"measurement": "IC50", "setting": "[1]; SK-MEL-2, 48 h", "value": 25.7, "unit": "µM"},
      {"measurement": "GI50", "setting": "[1]; SK-MEL-2, time 48 hrs", "value": 5.5, "unit": "µM"},
      {"measurement": "TGI", "setting": "[1]; SK-MEL-2, time 48 hrs", "value": 22.9, "unit": "µM"},
      {"measurement": "CC50", "setting": "[1]; SK-MEL-2, time 48 hrs, read-out: LC50 (the source's name)", "value": 4.03, "unit": "µM"},
      {"measurement": "GI50", "setting": "[2]", "value": 4.47, "unit": "µM"},
      {"measurement": "IC50", "setting": "[3]; NCI-H23, 48 h", "value": 20.9, "unit": "µM"},
      {"measurement": "GI50", "setting": "[3]; NCI-H23, time 48 hrs", "value": 6.92, "unit": "µM"},
      {"measurement": "TGI", "setting": "[3]; NCI-H23, time 48 hrs", "value": 31.6, "unit": "µM"},
      {"measurement": "IC50", "setting": "[4]; SNB-19, 48 h", "value": 15.8, "unit": "µM"},
      {"measurement": "GI50", "setting": "[4]; SNB-19, time 48 hrs", "value": 6.92, "unit": "µM"},
      {"measurement": "LC50", "setting": "[4]; SNB-19, time 48 hrs", "value": 4, "unit": "µM"},
      {"measurement": "TGI", "setting": "[4]; SNB-19, time 48 hrs", "value": 29.5, "unit": "µM"},
      {"measurement": "IC50", "setting": "[5]; DU-145, 48 h", "value": 4.68, "unit": "µM"},
      {"measurement": "GI50", "setting": "[5]; DU-145, time 48 hrs", "value": 3.31, "unit": "µM"},
      {"measurement": "TGI", "setting": "[5]; DU-145, time 48 hrs", "value": 11.2, "unit": "µM"},
      {"measurement": "CC50", "setting": "[5]; DU-145, time 48 hrs, read-out: LC50 (the source's name)", "value": 4.41, "unit": "µM"},
      {"measurement": "IC50", "setting": "[6]; MCF7, 48 h", "value": 3.98, "unit": "µM"},
      {"measurement": "GI50", "setting": "[6]; MCF7, time 48 hrs", "value": 2.82, "unit": "µM"},
      {"measurement": "TGI", "setting": "[6]; MCF7, time 48 hrs", "value": 12.6, "unit": "µM"},
      {"measurement": "CC50", "setting": "[6]; MCF7, time 48 hrs, read-out: LC50 (the source's name)", "value": 4.26, "unit": "µM"},
      {"measurement": "IC50", "setting": "[7]; COLO 205, 48 h", "value": 3.72, "unit": "µM"},
      {"measurement": "GI50", "setting": "[7]; COLO 205, time 48 hrs", "value": 2.09, "unit": "µM"},
      {"measurement": "TGI", "setting": "[7]; COLO 205, time 48 hrs", "value": 4.27, "unit": "µM"},
      {"measurement": "CC50", "setting": "[7]; COLO 205, time 48 hrs, read-out: LC50 (the source's name)", "value": 5.07, "unit": "µM"},
      {"measurement": "IC50", "setting": "[8]; MDA-MB-468, 48 h", "value": 5.89, "unit": "µM"},
      {"measurement": "GI50", "setting": "[8]; MDA-MB-468, time 48 hrs", "value": 2.04, "unit": "µM"},
      {"measurement": "TGI", "setting": "[8]; MDA-MB-468, time 48 hrs", "value": 7.59, "unit": "µM"},
      {"measurement": "CC50", "setting": "[8]; MDA-MB-468, time 48 hrs, read-out: LC50 (the source's name)", "value": 4.32, "unit": "µM"},
      {"measurement": "IC50", "setting": "[9]; 48 h", "value": 100, "unit": "µM"},
      {"measurement": "GI50", "setting": "[9]; time 48 hrs", "value": 2.24, "unit": "µM"},
      {"measurement": "TGI", "setting": "[9]; time 48 hrs", "value": 10.5, "unit": "µM"},
      {"measurement": "CC50", "setting": "[9]; time 48 hrs, read-out: LC50 (the source's name)", "value": 4, "unit": "µM"},
      {"measurement": "GI50", "setting": "[10]", "value": 3.39, "unit": "µM"},
      {"measurement": "IC50", "setting": "[11]; SK-MEL-5, 48 h", "value": 6.03, "unit": "µM"},
      {"measurement": "GI50", "setting": "[11]; SK-MEL-5, time 48 hrs", "value": 3.16, "unit": "µM"},
      {"measurement": "TGI", "setting": "[11]; SK-MEL-5, time 48 hrs", "value": 13.8, "unit": "µM"},
      {"measurement": "CC50", "setting": "[11]; SK-MEL-5, time 48 hrs, read-out: LC50 (the source's name)", "value": 4.33, "unit": "µM"},
      {"measurement": "IC50", "setting": "[12]; A549, 48 h", "value": 6.92, "unit": "µM"},
      {"measurement": "GI50", "setting": "[12]; A549, time 48 hrs", "value": 4.47, "unit": "µM"},
      {"measurement": "TGI", "setting": "[12]; A549, time 48 hrs", "value": 20.4, "unit": "µM"},
      {"measurement": "CC50", "setting": "[12]; A549, time 48 hrs, read-out: LC50 (the source's name)", "value": 4.14, "unit": "µM"},
      {"measurement": "IC50", "setting": "[13]; KM12, 48 h", "value": 5.75, "unit": "µM"},
      {"measurement": "GI50", "setting": "[13]; KM12, time 48 hrs", "value": 3.8, "unit": "µM"},
      {"measurement": "LC50", "setting": "[13]; KM12, time 48 hrs", "value": 4.25, "unit": "µM"},
      {"measurement": "TGI", "setting": "[13]; KM12, time 48 hrs", "value": 16.2, "unit": "µM"},
      {"measurement": "IC50", "setting": "[14]; UACC-62, 48 h", "value": 12.9, "unit": "µM"},
      {"measurement": "GI50", "setting": "[14]; UACC-62, time 48 hrs", "value": 5.01, "unit": "µM"},
      {"measurement": "LC50 (50% lethal concentration)", "setting": "[14]; UACC-62, time 48 hrs", "value": 4.16, "unit": "µM"},
      {"measurement": "TGI", "setting": "[14]; UACC-62, time 48 hrs", "value": 21.9, "unit": "µM"}
    ]}
  ]
}
